# Data as given in ChEMBL document CHEMBL5316284, “Structural Determinants of Indole-2-carboxamides: Identification of Lead Acetamides with Pan Antimycobacterial Activity” (J Med Chem, 2023).
# Experiments:
# [1] = test system: Mycobacteroides abscessus; assay: Antimycobacterial activity against Mycobacterium abscessus […] assessed as inhibition of bacterial growth measured after 5 days by visual analysis; assay type: functional; conditions: 120 h, time 5 day
# [2] = test system: Mycobacterium tuberculosis; assay: Antimycobacterial activity against Mycobacterium tuberculosis H37Rv mc2 6206 assessed as inhibition of bacterial growth measured after 7 days by visual analysis; assay type: functional; conditions: H37Rv mc2 6206, 168 h, time 7 day
# [3] = Kinetic solubility of compound at pH 7.4 incubated for 6 hrs by LC-MS/MS analysis; assay type: physicochemical; conditions: buffer, read-out: Kinetic_solubility
# [4] = Permeability of the compound by PAMPA method; assay type: ADME
# [5] = Plasma protein binding in human at 10 ug/ml incubated for 4 hrs under shaking condition by LC/MS/MS analysis; assay type: ADME, cell-free; conditions: at 10 µg/mL, read-out: PPB (converted)
# [6] = Metabolic stability in human liver S9 fraction assessed as parent compound remaining at 5 ug/ml after 90 mins in presence of NADPH by LC/MS analysis; assay type: ADME, subcellular; conditions: s9, 1.5 h, dose 5 µg/ml
# [7] = Metabolic stability in mouse liver S9 fraction assessed as parent compound remaining at 5 ug/ml after 90 mins in presence of NADPH by LC/MS analysis; assay type: ADME, subcellular; conditions: s9, 1.5 h, dose 5 µg/ml
# [8] = Cytotoxicity against human WI26VA4 cells assessed as inhibition of cell growth measured after 72 hrs by MTT assay; assay type: toxicity, cell-based
# [9] = Selectivity index, ratio of IC50 for Cytotoxicity against human WI26VA4 cells to MIC for antimycobacterial activity against Mycobacterium abscessus […]; assay type: toxicity, cell-based; conditions: read-out: Selectivity Index
# [10] = Selectivity index, ratio of IC50 for Cytotoxicity against human WI26VA4 cells to MIC for antimycobacterial activity against Mycobacterium tuberculosis H37Rv mc2 6206; assay type: toxicity, cell-based; conditions: read-out: Selectivity Index
# [11] = test system: Mycolicibacterium fortuitum; assay: Antimycobacterial activity against Mycobacterium fortuitum ATCC 6841 assessed as inhibition of bacterial growth by visual analysis; assay type: functional
# [12] = Antimycobacterial activity against Mycobacterium avium subsp. avium 2585R assessed as inhibition of bacterial growth by visual analysis; assay type: functional
# [13] = test system: Mycobacterium intracellulare; assay: Antimycobacterial activity against Mycobacterium intracellulare 1956 assessed as inhibition of bacterial growth by visual analysis; assay type: functional
# Mycobacteroides chelonae = assay: Antimycobacterial activity against Mycobacteroides chelonae ATCC 35752 assessed as inhibition of bacterial growth by visual analysis; assay type: functional
# [14] = test system: Mycobacterium intracellulare subsp. chimaera; assay: Antimycobacterial activity against Mycobacterium intracellulare subsp. chimaera 1501948 assessed as inhibition of bacterial growth by visual analysis; assay type: functional
# Mycobacterium kansasii = assay: Antimycobacterial activity against Mycobacterium kansasii ATCC 1279 assessed as inhibition of bacterial growth by visual analysis; assay type: functional
smiles,measurement,setting,value
O=C(CNc1ccc(OC(F)(F)F)cc1)NC12CC3CC(CC(C3)C1)C2,MIC,[1],2 µg/mL
same,MIC,[2],16 µg/mL
same,solubility kinetic at 6 h,[3],6.79 µg/mL
same,permeability,[4],0.47 10^-6 cm/s
same,"fraction unbound at 4 h, 10 ug/ml",[5],0.002
same,t1/2,[6],3.1 h
same,t1/2,[7],4.1 h
same,IC50,[8],> 20 µg/mL
same,selectivity ratio,[9],> 10
same,selectivity ratio,[10],> 1.2
O=C(CNc1cccc(Cl)c1)NC12CC3CC(CC(C3)C1)C2,MIC,[1],1 µg/mL
same,MIC,[2],1 µg/mL
same,solubility kinetic at 6 h,[3],30.3 µg/mL
same,permeability,[4],0.32 10^-6 cm/s
same,"fraction unbound at 4 h, 10 ug/ml",[5],0.002
same,t1/2,[6],5.6 h
same,t1/2,[7],1.7 h
same,IC50,[8],> 20 µg/mL
same,selectivity ratio,[9],> 20
same,selectivity ratio,[10],> 20
O=C(CNc1ccc(Cl)cc1)NC1C2CC3CC(C2)CC1C3 (centres undefined),MIC,[1],> 64 µg/mL
same,MIC,[2],64 µg/mL
O=C(CNc1ccccc1)NC1C2CC3CC(C2)CC1C3 (centres undefined),MIC,[1],> 64 µg/mL
same,MIC,[2],16 µg/mL
C[C@@H]1[C@H]2C[C@@H](C[C@H]1NC(=O)CNc1ccc(C(F)(F)F)cc1)C2(C)C,MIC,[1],32 µg/mL
same,MIC,[2],16 µg/mL
O=C(CNc1ccccc1)NC1CCCCCC1,MIC,[1],> 64 µg/mL
same,MIC,[2],64 µg/mL
O=C(CNc1ccccc1Br)NC12CC3CC(CC(C3)C1)C2,MIC,[1],8 µg/mL
same,MIC,[2],8 µg/mL
Cc1ccc(NCC(=O)N[C@H]2CC[C@H](C)CC2)cc1,MIC,[1],> 64 µg/mL
same,MIC,[2],64 µg/mL
O=C(CNc1ccc(C(F)(F)F)cc1)NC1CCCCCCC1,MIC,[1],64 µg/mL
same,MIC,[2],32 µg/mL
C[C@@H]1[C@H]2C[C@@H](C[C@H]1NC(=O)CNc1ccccc1Cl)C2(C)C,MIC,[1],1 µg/mL
same,MIC,[2],0.25 µg/mL
same,MIC,[11],2 µg/mL
same,MIC,[12],16 µg/mL
same,MIC,[13],16 µg/mL
same,MIC,Mycobacteroides chelonae,4 µg/mL
same,MIC,[14],> 64 µg/mL
same,MIC,Mycobacterium kansasii,16 µg/mL
same,solubility kinetic at 6 h,[3],14.3 µg/mL
same,permeability,[4],0.38 10^-6 cm/s
same,"fraction unbound at 4 h, 10 ug/ml",[5],0.045
same,t1/2,[6],5.1 h
same,t1/2,[7],8.6 h
same,IC50,[8],> 20 µg/mL
same,selectivity ratio,[9],> 20
same,selectivity ratio,[10],> 80
O=C(CNc1ccccc1Cl)NC12CC3CC(CC(C3)C1)C2,MIC,[1],16 µg/mL
same,MIC,[2],8 µg/mL
CNC(=C[N+](=O)[O-])NCCSCc1ccc(CN(C)C)o1 [RANITIDINE],solubility kinetic at 6 h,[3],77.5 µg/mL
same,permeability,[4],3.47 10^-6 cm/s
same,"fraction unbound at 4 h, 10 ug/ml",[5],0.793
Cc1ccc(NCC(=O)NC23CC4CC(CC(C4)C2)C3)cc1,MIC,[1],32 µg/mL
same,MIC,[2],32 µg/mL
C[C@H]1CC[C@H](NC(=O)CNc2ccc(Cl)cc2)CC1,MIC,[1],> 64 µg/mL
same,MIC,[2],64 µg/mL
O=C(CNc1ccccc1OC(F)(F)F)NC12CC3CC(CC(C3)C1)C2,MIC,[1],> 64 µg/mL
same,MIC,[2],1 µg/mL
COc1ccc(NCC(=O)NC2CCCCCCC2)cc1,MIC,[1],> 64 µg/mL
same,MIC,[2],64 µg/mL
O=C(CNc1ccc(OC(F)(F)F)cc1)NC1C2CC3CC(C2)CC1C3 (centres undefined),MIC,[1],2 µg/mL
same,MIC,[2],4 µg/mL
same,solubility kinetic at 6 h,[3],20.3 µg/mL
same,permeability,[4],3.12 10^-6 cm/s
same,"fraction unbound at 4 h, 10 ug/ml",[5],0.033
same,t1/2,[6],5.9 h
same,t1/2,[7],3.7 h
same,IC50,[8],> 20 µg/mL
same,selectivity ratio,[9],> 10
same,selectivity ratio,[10],> 5
O=C(CNc1ccc(C(F)(F)F)cc1)NC12CC3CC(CC(C3)C1)C2,MIC,[1],8 µg/mL
same,MIC,[2],8 µg/mL
Cc1ccc(NCC(=O)NC2CCCCCCC2)cc1,MIC,[1],> 64 µg/mL
same,MIC,[2],32 µg/mL
C[C@@H]1[C@H]2C[C@@H](C[C@H]1NC(=O)CNc1ccccc1)C2(C)C,MIC,[1],> 64 µg/mL
same,MIC,[2],64 µg/mL
